This passage reports change in vivo and IC50 results from patent US4880817A, “O-functionalized derivatives of substituted isoquinolin-3-ols having cardiotonic and/or phosphodiesterase fraction III inhibiting properties and/or renal vasodilating properties” (Ortho Pharmaceutical Corporation, priority 1987, dated 1989).

Like-named read-outs stand apart in the source and are kept apart here.

Test [1] relates to adult mongrel dogs. Briefly: Renal vasodilating activity in anesthetized dogs. The test is classed as in vivo, mongrel dog. The settings on record: Canis lupus familiaris. The protocol: Goldberg et al., J. Pharmacol. Exp. Ther., 163, 188 (1968), performed an investigation of the structural requirements for dopamine-like renal vasodilation of phenethylamines and apomorphine. The following procedure is a variation of the assay described in that report.
Adult mongrel dogs were anesthetized and surgically prepared for electromagnetic measurement of renal artery blood flow. A carotid artery was cannulated for measuring arterial blood pressure and drugs were administered intravenously or intraarterially (via the renal artery). Heart rate was monitored with a cardiotachometer. Renal vascular resistance was calculated as the ratio of mean arterial blood pressure to renal artery blood flow. Dopamine was infused intravenously at 3 μg/kg/min for ten minutes (at an infusion rate of about 1 ml/min) to determine responsiveness of each dog to renal dopamine receptor stimulation. Cumulative dose-response data were obtained by infusing a compound of this invention at progressively increasing (usually three-fold) infusion rates, each dose being infused for five minutes. The maximum percent change from pre-drug control in renal artery blood flow (or in renal vascular resistance) was determined for each infusion dose.
RBF, RVR, MABP, and HR values are percent changes in renal blood flow, renal vascular resistance, mean arterial blood pressure, and heart rate, respectively, relative to control values.

In test [2] the target is T1, Phosphodiesterase Fraction III (Canis lupus familiaris, UniProt A0A8I3NYE0).
T1 construct: The fraction III enzyme was isolated as an isomzyme from the crude canine heart homogenate; from tissue; host or cells: canine heart (crude homogenate, ion exchange chromatography)
T1 sequence (A0A8I3NYE0 1-1135): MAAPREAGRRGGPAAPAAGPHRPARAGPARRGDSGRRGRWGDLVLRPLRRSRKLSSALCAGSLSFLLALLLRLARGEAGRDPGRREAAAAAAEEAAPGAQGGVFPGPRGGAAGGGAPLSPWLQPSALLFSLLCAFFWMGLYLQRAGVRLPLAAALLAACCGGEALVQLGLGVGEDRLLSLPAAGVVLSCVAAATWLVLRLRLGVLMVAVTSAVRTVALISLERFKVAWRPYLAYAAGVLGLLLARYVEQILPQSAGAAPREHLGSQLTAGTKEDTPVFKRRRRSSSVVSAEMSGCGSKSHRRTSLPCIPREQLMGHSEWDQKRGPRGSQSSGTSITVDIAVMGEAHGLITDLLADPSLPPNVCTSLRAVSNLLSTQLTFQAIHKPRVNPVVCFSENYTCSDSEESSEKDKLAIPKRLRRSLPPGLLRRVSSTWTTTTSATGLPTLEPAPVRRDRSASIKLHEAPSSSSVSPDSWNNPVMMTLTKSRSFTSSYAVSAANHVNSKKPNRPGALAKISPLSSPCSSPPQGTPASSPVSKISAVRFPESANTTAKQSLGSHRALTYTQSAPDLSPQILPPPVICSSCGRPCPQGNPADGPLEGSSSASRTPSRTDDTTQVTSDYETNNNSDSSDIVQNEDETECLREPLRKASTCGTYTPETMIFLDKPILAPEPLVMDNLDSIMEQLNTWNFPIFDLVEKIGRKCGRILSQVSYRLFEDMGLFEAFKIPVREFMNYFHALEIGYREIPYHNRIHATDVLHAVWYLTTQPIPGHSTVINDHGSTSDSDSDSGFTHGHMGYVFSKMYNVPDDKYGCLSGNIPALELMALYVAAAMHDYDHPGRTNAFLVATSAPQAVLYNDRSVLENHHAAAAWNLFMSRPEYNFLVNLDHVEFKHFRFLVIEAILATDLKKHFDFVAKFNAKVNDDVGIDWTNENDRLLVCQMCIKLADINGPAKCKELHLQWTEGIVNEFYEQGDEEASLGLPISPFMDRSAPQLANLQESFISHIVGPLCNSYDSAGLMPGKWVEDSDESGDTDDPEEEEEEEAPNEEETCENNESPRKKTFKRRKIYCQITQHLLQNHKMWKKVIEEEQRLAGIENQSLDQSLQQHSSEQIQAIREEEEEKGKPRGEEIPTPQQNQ
Briefly: Inhibition of phosphodiesterase fraction III activity. The format is biochemical, canine. Here is the method:
Thompson et al. described a cyclic nucleotide phosphodiesterase assay in Advances in Cyclic Nucleotide Research, Brooker et al., eds., 10, 69-92 (1979). The following procedure is based on that published assay and measures the ability of compounds to inhibit cyclic nucleotide phosphodiesterase which is an enzyme that converts either cyclic AMP or cyclic GMP to the noncyclized AMP or GMP, respectively.
Compounds were tested at various concentrations in the presence of cyclic AMP (0.10-1.0 μM containing 0.2 microCuries ^3 H-cyclic AMP), cyclic nucleotide phosphodiesterase, and 0.05M Tris-Cl buffer (pH 7.4, containing 5 mM magnesium chloride). After a specified time, the reaction was stopped by heating to 100° C. for 1 minute. After cooling, 0.10 ml of a solution containing snake venom (1 mg/ml) was added, and the reaction was allowed to proceed for 30 min. Termination of this reaction was accomplished by the addition of 1.0 ml of 33 percent DOWEX AGl×8 resin slurry (Dow Chemical Co., Midland, MI) to separate the product from the unconverted substrate. An aliquot was removed from the supernatant and analyzed by liquid scintillation spectrometry.
The fraction III enzyme was isolated as an isomzyme from the crude canine heart homogenate by ion exchange chromatography. The enzyme activity was designated fraction III since it is the third and last phosphodiesterase activity to be eluted from the chromatographic column. The fraction III enzyme has a relatively high affinity and specificity for the cyclic AMP.
Data are presented as the IC50 which is the concentration (in micromoles) of a compound that was required to inhibit 50 percent of the cyclic nucleotide phosphodiesterase activity.

Test [3] has as its system adult mongrel dogs. Briefly: Acute in vivo cardiotonic activity in anesthetized dogs. Also noted: species or system mongrel dog. The settings on record: Canis lupus familiaris, dose 1.87 mpk, iv, relative to controls. Here is the method:
The acute in vivo cardiotonic activity of compounds prepared according to the present invention was determined according to a modification of the procedure described by Alousi et al., Circ.
In particular, adult mongrel dogs were anesthetized with sodium pentobarbital and were artificially respired. Arterial pressure was monitored via a femoral artery, and the pulse pressure was used to trigger a cardiotachometer for heart rate. Left ventricular pressure was determined with a Millar catheter, and dP/dT (the change in ventricular pressure with time) was derived. Cardiac output was determined by measuring ascending aortic blood flow with an electromagnetic flow probe, and myocardial contractile force was measured with a Walton Brodie strain gauge sutured to the right ventricle. Lead II EKG was also recorded.
A standard dose (10 μg/kg/min) of dopamine was administered to assess myocardial responsiveness.
Compounds of the invention were administered by intravenous infusion and the effects on cardiovascular parameters were determined.

Setting [4] is: read-out: HR: percent change in heart rate, dose 6.2 mpk, relative to controls.
Where [5] appears, read: read-out: MABP: percent change in mean arterial blood pressure, dose 6.2 mpk, relative to controls.
Where [6] appears, read: read-out: RVR: percent change in renal vascular resistance, dose 6.2 mpk, relative to controls.
The mark [7] stands for this setting: read-out: HR: percent change in heart rate, dose 1.2 mpk, relative to controls.
The mark [8] stands for this setting: read-out: MABP: percent change in mean arterial blood pressure, dose 1.2 mpk, relative to controls.
The mark [9] stands for this setting: read-out: RBF: percent change in renal blood flow, dose 1.2 mpk, relative to controls.
Where [10] appears, read: read-out: RVR: percent change in renal vascular resistance, dose 1.2 mpk, relative to controls.
[11] abbreviates: dose 6.2 mpk, relative to controls, read-out: HR: percent change in heart rate.
The mark [12] stands for this setting: dose 6.2 mpk, relative to controls, read-out: MABP: percent change in mean arterial blood pressure.
Setting [13] is: dose 6.2 mpk, relative to controls, read-out: RBF: percent change in renal blood flow.
The mark [14] stands for this setting: dose 6.2 mpk, relative to controls, read-out: RVR: percent change in renal vascular resistance.
The mark [15] stands for this setting: cyclic AMP 0.10-1.0 μM, pH 7.4, enzyme from canine heart homogenate, read-out: IC50.
Setting [16] is: read-out: CF: percent change in cardiac force.
Setting [17] is: read-out: HR: percent change in heart rate.
[18] abbreviates: read-out: MABP: percent change in mean arterial blood pressure.
Setting [19] is: read-out: dP/dT: maximum percent change in left ventricular pressure with time.

The term IC50 denotes the point on the concentration scale where inhibition reaches its midpoint. Consider `COc1cc2c(C)nc(OC(=O)N(c3ccccc3)c3ccccc3)c([N+](=O)[O-])c2cc1OC` [Cmpd 34], for which the change in vivo at 6.2 mg/kg in the test on adult mongrel dogs [1] (setting [4]) is 21%; in the test on adult mongrel dogs [1] (setting [5]), -10%; in the test on adult mongrel dogs [1] (read-out: RBF: percent change in renal blood flow, dose 6.2 mpk, relative to controls), 37%; in the test with adult mongrel dogs [1] (setting [6]) it was -35%. Besides, the IC50 in test [2] was 35 µM.
On to `C=CCNC(=O)Nc1c(OC(=O)N(CC)CC)nc(C)c2cc(OCC)c(OC)cc12` [Cmpd 74], for which the change in vivo at 1.2 mg/kg in the test on adult mongrel dogs [1] (setting [7]) is -16%; in the test on adult mongrel dogs [1] (setting [8]) it was -2%; in the test on adult mongrel dogs [1] (setting [9]), 15%; in the test on adult mongrel dogs [1] (setting [10]) it was -14%. Further, it took 115 µM to reach half-maximal inhibition in test [2] (IC50).
On to `CCOc1cc2c(C)nc(OC(C)=O)c([N+](=O)[O-])c2cc1OC` [Cmpd 3], for which the change in vivo at 6.2 mg/kg in the test on adult mongrel dogs [1] (setting [11]) is 2%; in the test on adult mongrel dogs [1] (setting [12]), -6%; with adult mongrel dogs [1] (setting [13]), 61%; with adult mongrel dogs [1] (setting [14]) it was -41%. For the same compound, the half-maximal inhibitory concentration (IC50) in test [2] (setting [15]) was determined as 6 µM.
The matching figures for `CCOc1cc2c(C)nc(OS(=O)(=O)N(C)C)c([N+](=O)[O-])c2cc1OC` [Cmpd 26]: 0%, 0%, 7%, -8% and 20.5 µM.
For the compound `CCN(CC)C(=O)Oc1nc(C)c2cc(OC)c(OC)cc2c1[N+](=O)[O-]` [Cmpd 27, 3-Diethylcarbamyloxy-6,7-dimethoxy-1-methyl-4-nitroisoquinoline], the change in vivo at 6.2 mg/kg was 13% in the test on adult mongrel dogs [1] (setting [4]), -12% with adult mongrel dogs [1] (setting [5]) and -30% in the test with adult mongrel dogs [1] (setting [6]). For the same compound, the change in vivo at 1.87 mg/kg in the test on adult mongrel dogs [3] (setting [16]) turned out to be 87%; in the test on adult mongrel dogs [3] (setting [17]) it was 46%; in the test with adult mongrel dogs [3] (setting [18]) it was 17%; in the test with adult mongrel dogs [3] (setting [19]), 41%.
On to `COc1cc2c(C)nc(OS(=O)(=O)N(C)C)c(N)c2cc1OC` [Cmpd 63], for which, in test [2] (setting [15]), the IC50 was determined as 185 µM.
`CCOc1cc2c([N+](=O)[O-])c(OC(C)=O)nc(C)c2cc1OC` [Cmpd 21]: the change in vivo at 6.2 mg/kg with adult mongrel dogs [1] (setting [11]) is 38%; with adult mongrel dogs [1] (setting [12]) it was 3%; in the test on adult mongrel dogs [1] (setting [13]), 40%; in the test on adult mongrel dogs [1] (setting [14]), -25%. For the same compound, the IC50 in test [2] (setting [15]) turned out to be 14 µM.
With `CCC(=O)Nc1c(OC(=O)CC)nc(C)c2cc(OC)c(OC)cc12` [Cmpd 33, 6,7-Dimethoxy-1-methyl-4-[N-propanamido]-3-propanoyloxyisoquinoline], the change in vivo at 6.2 mg/kg is -9% in the test with adult mongrel dogs [1] (setting [11]), -9% in the test with adult mongrel dogs [1] (setting [12]), 41% in the test on adult mongrel dogs [1] (setting [13]) and -35% with adult mongrel dogs [1] (setting [14]). Besides, the change in vivo at 1.87 mg/kg with adult mongrel dogs [3] (setting [16]) was determined as 132%; in the test with adult mongrel dogs [3] (setting [17]), 18%; with adult mongrel dogs [3] (setting [18]), 17%; in the test on adult mongrel dogs [3] (setting [19]) it was 84%.
With `COC(=O)c1c(OC(C)C)nc(C)c2cc(OC)c(OC)cc12` [Cmpd 18], the IC50 in test [2] (setting [15]) stood at 225 µM.
In turn, `CCOc1cc2c(C)nc(OC(=O)N3CCNCC3)c([N+](=O)[O-])c2cc1OC` [Cmpd 71] registered an IC50 in test [2] of 22 µM.
Regarding `COc1cc2c(C)nc(OC(=O)C(C)(C)C)c([N+](=O)[O-])c2cc1OC` [Cmpd 12], the figures for the change in vivo at 6.2 mg/kg in the test with adult mongrel dogs [1] (setting [11]), with adult mongrel dogs [1] (setting [13]) and with adult mongrel dogs [1] (setting [14]) were 12%, 38% and -26%, respectively. For the same compound, the change in vivo at 1.87 mg/kg was 70% in the test with adult mongrel dogs [3] (setting [16]), 14% in the test with adult mongrel dogs [3] (setting [17]), -10% in the test with adult mongrel dogs [3] (setting [18]) and 51% in the test on adult mongrel dogs [3] (setting [19]).
Turning to `CCOc1nc(C)c2cc(OC)c(OC)cc2c1C(=O)OC` [Cmpd 19, 4-Carbomethoxy-3-ethoxy-6,7-dimethoxy-1-methylisoquinoline], the 50% inhibitory concentration (IC50) in test [2] (setting [15]) was found to be 42 µM.
On the same count and under the same terms, the value for `CCOc1cc2c(C)nc(OC(=O)N(CC)CC)c(N)c2cc1OC` [Cmpd 44] was 180 µM.
Consider `COc1cc2c(C)nc(OC(=O)N3CCNCC3)c([N+](=O)[O-])c2cc1OC` [Cmpd 70, 6,7-Dimethoxy-1-methyl-4-nitro-3-(1-piperazinyl)carbonyloxyisoquinoline], for which the change in vivo at 1.2 mg/kg was 20% in the test with adult mongrel dogs [1] (setting [7]), -1% in the test with adult mongrel dogs [1] (setting [8]), 26% with adult mongrel dogs [1] (setting [9]) and -19% with adult mongrel dogs [1] (setting [10]). In test [2], this compound returned an IC50 of 78 µM.
Consider `CCOc1cc2c(C)nc(OC(=O)C(C)(C)C)c([N+](=O)[O-])c2cc1OC` [Cmpd 9], for which the change in vivo at 6.2 mg/kg in the test on adult mongrel dogs [1] (setting [11]) is 0%; with adult mongrel dogs [1] (setting [12]), -26%; in the test on adult mongrel dogs [1] (setting [13]), 43%; in the test on adult mongrel dogs [1] (setting [14]), -48%. The 50% inhibitory concentration (IC50) in test [2] (setting [15]) is 100 µM.
`COc1cc2c(C)nc(OS(=O)(=O)N(C)C)c(N)c2cc1OC` [Cmpd 43]: in test [2] (setting [15]), the IC50 came out at 34 µM.
